Columns and labels:
[1] = target: human androgen receptor (full length, wild-type form) (Homo sapiens (Human), UniProt P10275); experiment: Transactivation assay for the wild-type androgen receptor (PC-3 cells, MMTV-luciferase reporter); type: cell-based; conditions: in the presence of R1881, 16 hours
From the text: For determining the androgen receptor-dependent transcription, a cellular assay system was used, consisting of PC-3 cells (Kaighn et al., Invest. Urol. 17: 16-23, 1979), which express the human androgen receptor stably and recombinantly (full length, wild-type form, see Swiss-Prot Acc. No. P10275, Entry Version 159, Sequence Version 2). In addition, these PC3 cells contain a stably integrated reporter gene plasmid, which is based on the commercially available plasmid pGL4.14 (#E6691, Promega Corporation, Madison, Wis., USA) and contains the luciferase gene from the American firefly (Photinus pyralis) under the control of the MMTV promoter (Cato et al., EMBO J. 6: 363-368, 1987). These cells were propagated in routine cell culture at 37° C. and 5% CO2 in a medium containing 90% RPMI 1640 (Invitrogen GmbH, Darmstadt, Germany), 100 U penicillin, 100 μg/ml streptomycin (Invitrogen), 4 mM L-glutamine (Invitrogen), 10% fetal calf serum (FCS Serum Gold, PAA Laboratories GmbH, Cölbe, Germany), 600 μg/ml Geneticin (G418-sulphate, Invitrogen) and 10 μg/ml puromycin (Sigma Aldrich GmbH, Germany).
For carrying out the transactivation assays, approx. 1000 cells per well were plated out in a 384-well cell culture plate in a medium that contained activated charcoal-treated calf serum (FCS Serum Gold, PAA Laboratories) at a concentration of 5% (v/v). The test substances were added in a concentration series from 5.12×10^−12 to 1×10^−5 M in the presence of […] R1881 (methyltrienolone). The test plates were incubated overnight at 37° C. and 5% CO2. After 16 hours, 15 μl of Steady Glo Lysis and Detection reagent (E2550, Promega Corporation, Madison, Wis., USA) was added per well and the luminescence was read in a Topcount Luminometer (PerkinElmer, Waltham, Mass., USA) for 4 seconds per well. The luminescence values obtained were normalized, wherein 100% corresponded to the effect of the unstimulated control (without R1881), and 0% corresponded to the effect of the stimulated control (R1881 plus DMSO instead of test substance). The IC50 value was determined by regression analysis based on a four-parameter equation (minimum, maximum, IC50, Hill coefficient; Y=Max+(Min−Max)/(1+(X/IC50)^Hill)).

[2] = system: LNCaP cells; experiment: Proliferation assay with LNCaP cells; type: cell-based; conditions: Homo sapiens, 168 h, in the presence of 1×10^−10 M R1881, seven days, AlamarBlue, read-out: IC50 LNCaP cell proliferation
Protocol: LNCaP cells (Horoszewicz et al., in “Models for Prostate Cancer” (ed. G. P. Murphy), Alan R. Liss, New York 1981, p. 115-132; Horoszewicz et al., Cancer Res. 43: 1809-1818, 1983) were plated out at a density of 2000 cells per well of a 96-well cell culture plate in RMPI 1640 medium (F1275, Biochrom AG), which contained activated charcoal-treated calf serum (FCS Serum Gold, PAA Laboratories) at a concentration of 5% (v/v). Three days later the cells were treated with the test substances in concentrations from 1×10^−8 to 1×10^−10 M in the presence of 1×10^−10 M R1881. Cell proliferation was determined seven days later after incubation for 2 hours with AlamarBlue (DAL1100, Invitrogen) (Nakayama et al., J Immunol Methods, 204(2): 205-8, 1997). The fluorescence values obtained were normalized, wherein 100% corresponded to the effect of the unstimulated control (without R1881), and 0% corresponded to the effect of the stimulated control (R1881 plus DMSO instead of test substance). The IC50 value was determined by regression analysis based on a four-parameter equation (minimum, maximum, IC50, Hill coefficient; Y=Max+(Min−Max)/(1+(X/IC50)^Hill)).

human androgen receptor (full length, wild-type form), sequence (P10275 whole entry): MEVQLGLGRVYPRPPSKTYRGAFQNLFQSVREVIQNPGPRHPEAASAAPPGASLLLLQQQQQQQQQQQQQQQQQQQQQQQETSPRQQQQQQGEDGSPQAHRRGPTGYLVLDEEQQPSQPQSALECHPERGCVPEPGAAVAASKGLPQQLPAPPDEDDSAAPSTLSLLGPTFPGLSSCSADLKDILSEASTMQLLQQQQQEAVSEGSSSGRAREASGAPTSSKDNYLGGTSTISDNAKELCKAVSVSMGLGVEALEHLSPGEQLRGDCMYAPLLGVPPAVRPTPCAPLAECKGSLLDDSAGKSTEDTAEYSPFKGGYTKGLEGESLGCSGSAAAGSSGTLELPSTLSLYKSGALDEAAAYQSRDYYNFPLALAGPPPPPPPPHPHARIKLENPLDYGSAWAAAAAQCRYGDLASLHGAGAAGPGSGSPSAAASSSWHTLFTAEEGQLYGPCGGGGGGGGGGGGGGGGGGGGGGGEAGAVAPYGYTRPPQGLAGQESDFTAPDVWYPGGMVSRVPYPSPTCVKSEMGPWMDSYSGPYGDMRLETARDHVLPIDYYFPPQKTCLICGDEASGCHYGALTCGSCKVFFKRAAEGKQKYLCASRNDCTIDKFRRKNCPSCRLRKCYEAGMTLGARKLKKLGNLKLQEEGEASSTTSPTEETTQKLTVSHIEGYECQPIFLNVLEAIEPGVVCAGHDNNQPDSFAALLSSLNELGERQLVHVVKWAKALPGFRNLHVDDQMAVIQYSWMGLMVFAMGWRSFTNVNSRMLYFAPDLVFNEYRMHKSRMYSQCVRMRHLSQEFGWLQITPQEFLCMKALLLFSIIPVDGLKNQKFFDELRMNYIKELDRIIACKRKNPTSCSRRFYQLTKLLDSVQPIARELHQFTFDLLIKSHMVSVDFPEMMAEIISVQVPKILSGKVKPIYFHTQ

| IC50 [1] [µM] | IC50 [2] [µM] | Compound |
| --- | --- | --- |
| 0.74 | 0.021 | O=C(NC[C@H]1CC[C@H](Oc2ccnc3c(F)cccc23)CC1)c1ccon1 [Example 6, N-({trans-4-[(8-fluoroquinolin-4-yl)oxy]cyclohexyl}methyl)isoxazole-3-carboxamide] |
| 0.46 | 0.39 | O=C(NC[C@H]1CC[C@H](Oc2ccnc3c(F)cccc23)CC1)c1ccno1 [Example 5, N-({trans-4-[(8-fluoroquinolin-4-yl)oxy]cyclohexyl}methyl)-isoxazole-5-carboxamide] |
| 0.24 | 0.17 | O=C(NC[C@H]1CC[C@H](Oc2ccnc3c(F)cccc23)CC1)c1ccc(F)cc1 [Example 1, N-({trans-4-[(8-fluoroquinolin-4-yl)oxy]cyclohexyl}methyl)-4-fluorobenzamide] |
| 0.21 | 0.25 | Cc1nocc1C(=O)NC[C@H]1CC[C@H](Oc2ccnc3c(F)cccc23)CC1 [Example 4, N-({trans-4-[(8-fluoroquinolin-4-yl)oxy]cyclohexyl}methyl)-3-methylisoxazole-4-carboxamide] |
| 0.14 | 0.233 | N#Cc1cccc2c(O[C@H]3CC[C@H](NC(=O)c4ccc(F)cc4)CC3)ccnc12 [Example 25, N-{trans-4-[(8-cyanoquinolin-4-yl)oxy]cyclohexyl}-4-fluorobenzamide] |
| 0.69 | – | Cc1cc(C(=O)NC[C@H]2CC[C@H](Oc3ccnc4c(Br)cccc34)CC2)no1 [Example 20, N-({trans-4-[(8-bromoquinolin-4-yl)oxy]cyclohexyl}methyl)-5-methylisoxazole-3-carboxamide] |
| 0.463 | – | O=C(N[C@H]1CC[C@H](Oc2ccnc3c(Br)cccc23)CC1)c1ccc(C(F)(F)F)c(F)c1 [Example 16, N-{trans-4-[(8-bromoquinolin-4-yl)oxy]cyclohexyl}-3-fluoro-4-(trifluoromethyl)benzamide] |
| 0.018 | – | Cc1cc(C(=O)N[C@H]2CC[C@H](Oc3ccnc4c(C#N)cccc34)CC2)no1 [Example 26, N-{trans-4-[(8-cyanoquinolin-4-yl)oxy]cyclohexyl}-5-methylisoxazole-3-carboxamide] |
| 0.63 | – | O=C(NC[C@H]1CC[C@H](Oc2ccnc3c(Br)cccc23)CC1)c1ccon1 [Example 21, N-({trans-4-[(8-bromoquinolin-4-yl)oxy]cyclohexyl}methyl)isoxazole-3-carboxamide] |
| 0.02 | – | Cc1cc(C(=O)N[C@H]2CC[C@H](Oc3ccnc4c(Br)cccc34)CC2)no1 [Example 2, N-{trans-4-[(8-bromoquinolin-4-yl)oxy]cyclohexyl}-5-methylisoxazole-3-carboxamide] |
| 0.067 | – | N#Cc1cccc2c(O[C@H]3CC[C@H](NC(=O)c4ccc(F)c(Cl)c4)CC3)ccnc12 [Example 27, 3-chloro-N-{trans-4-[(8-cyanoquinolin-4-yl)oxy]cyclohexyl}-4-fluorobenzamide] |
| 0.477 | – | O=C(N[C@H]1CC[C@H](Oc2ccnc3c(Br)cccc23)CC1)c1ccc(F)cc1 [Example 17, N-{trans-4-[(8-bromoquinolin-4-yl)oxy]cyclohexyl}-4-fluorobenzamide] |
| 0.19 | – | O=C(N[C@H]1CC[C@H](Oc2ccnc3c(Br)cccc23)CC1)c1ccc(F)c(Cl)c1 [Example 18, N-{trans-4-[(8-bromoquinolin-4-yl)oxy]cyclohexyl}-3-chloro-4-fluorobenzamide] |
| 0.17 | – | O=C(N[C@H]1CC[C@H](Oc2ccnc3c(Br)cccc23)CC1)c1ccc(F)c(F)c1 [Example 13, N-{trans-4-[(8-bromoquinolin-4-yl)oxy]cyclohexyl}-3,4-difluorobenzamide] |
| 0.068 | – | Cc1ccc(C(=O)N[C@H]2CC[C@H](Oc3ccnc4c(Br)cccc34)CC2)cc1F [Example 14, N-{trans-4-[(8-bromoquinolin-4-yl)oxy]cyclohexyl}-3-fluoro-4-methylbenzamide] |

| Compound | IC50 [1] [µM] | IC50 [2] [µM] |
| --- | --- | --- |
| O=C(N[C@H]1CC[C@H](Oc2ccnc3c(Br)cccc23)CC1)c1cccc(F)c1 [Example 12, N-{trans-4-[(8-bromoquinolin-4-yl)oxy]cyclohexyl}-3-fluorobenzamide] | 0.093 | – |

Source: patent US9428460B2, “N-[4-(quinolin-4-yloxy)cyclohexyl(methyl)](hetero)arylcarboxamides as androgen receptor antagonists, production and use thereof as medicinal products” (BAYER PHARMA AKTIENGESELLSCHAFT, priority 2012, dated 2016)
